Series [1] in a line: Pharmacokinetic study in mice. In kind it is in vivo. The note with it: once-daily intraperitoneal (IP) dosing. The procedure:
(§1) In Vivo Studies. Studies were performed at Charles River Laboratories (CRL) and Dana Farber Cancer Institute (DFCI) where indicated and approved by Harvard University and each institution's respective animal care and use committee. For pharmacokinetic studies, serial blood samples from 7 week old male CD-1 mice (n=3 per timepoint) were collected (no blinding) into K2EDTA tubes, centrifuged, transferred into 96-well plates (matrix tubes), stored at −20° C., and analysed by HPLC/MS/MS (in-life performed at CRL). Study size was determined by the need for three blood samples per timepoint with three blood samples collected per mouse. The MV4; 11 xenograft model were performed as previously described (Etchin, J. et al. Antileukemic activity of nuclear export inhibitors that spare normal hematopoietic cells. Leukemia 27, 66-74 (2013); in-life performed at DFCI) Two million MV4;11-mCLP cells were injected into the tail vein of 7-week-old female NOD-SCID-IL2Rcγ^null (NSG) mice (The Jackson Laboratory) and tumor burden was assessed by bioluminescence imaging (BLI) using an IVIS Spectrum system (Caliper Life Sciences). […] After 30 days, blood counts were obtained (Hemavet 950 F, Drew Scientific) and spleen, femur, and peripheral blood cells were collected and analysed by flow cytometry (LSR Fortessa, BD Biosciences) from 3 mice/group. […]

For series [2], the system named is STAT1 S727 phosphorylation in NK cells. Put plainly: STAT1 pS727 inhibition in NK cells in vivo. To be noted: C57BL/6 mice, NK cells from spleen.
The next series concerns SKNO-1. Put plainly: Cell growth assay, SKNO-1. The note with it: Homo sapiens, SKNO-1, 240 h. In kind it is cell-based. The procedure: All media was supplemented with 100 U/mL penicillin and 100 μg/mL streptomycin. Human cancer cell lines were grown in the following media: MV4; 11, K562, MOLM-14 in RPMI-1640, 10% FBS; SKNO-1 in RPMI-1640, 10% FBS, and 10 ng/mL GM-CSF; MV4;11 and K562 were from ATCC. SKNO-1 was from DSMZ.
(§2) Cell Culture. All media was supplemented with 100 U/mL penicillin and 100 μg/mL streptomycin. Human cancer cell lines were grown in the following media: MV4; 11, RS4; 11, K562, HEL, MOLM-14, MEG-01 in RPMI-1640, 10% FBS; SET-2 in RPMI-1640, 20% FBS; UKE-1 in RPMI-1640, 10% FBS, 10% horse serum and 1 μM hydrocortisone; SKNO-1 and TF-1 in RPMI-1640, 10% FBS, and 10 or 2 ng/mL GM-CSF, respectively; HaCaT in DMEM, 10% FBS; and HCT116 in McCoy's 5 A, 10% FBS (proliferation assay) or DMEM, 10% FBS (gene expression study). HepG2, MV4;11, RS4;11, MEG-01, TF-1, HCT116 and K562 were from ATCC. SKNO-1 was from DSMZ. HEL, UKE-1, and SET-2 were provided by Ross L. Levine and HaCaT, MV4;11-mCLP, and MOLM-14 by Van Wilson, Andrew L. Kung, and Scott A. Armstrong, respectively. MOLM-14 cells were authenticated by STR profiling and flow cytometry and all cell lines were routinely tested and found to be negative for mycoplasma.

Series [3] relates to subcutaneously implanted SET-2 cells. Nature of the series: SET-2 subcutaneous xenotransplant model. In kind it is in vivo. The note with it: SCID beige mice, IP dosing daily.
Another series deals with SET-2. Nature of the series: Cell growth assay, SET-2. It is filed as cell-based. To be noted: Homo sapiens. The protocol:
as §2

The target of the next series is T1, CDK8 module (Homo sapiens, UniProt P49336).
T1 construct: made in house
T1 sequence (P49336 whole entry): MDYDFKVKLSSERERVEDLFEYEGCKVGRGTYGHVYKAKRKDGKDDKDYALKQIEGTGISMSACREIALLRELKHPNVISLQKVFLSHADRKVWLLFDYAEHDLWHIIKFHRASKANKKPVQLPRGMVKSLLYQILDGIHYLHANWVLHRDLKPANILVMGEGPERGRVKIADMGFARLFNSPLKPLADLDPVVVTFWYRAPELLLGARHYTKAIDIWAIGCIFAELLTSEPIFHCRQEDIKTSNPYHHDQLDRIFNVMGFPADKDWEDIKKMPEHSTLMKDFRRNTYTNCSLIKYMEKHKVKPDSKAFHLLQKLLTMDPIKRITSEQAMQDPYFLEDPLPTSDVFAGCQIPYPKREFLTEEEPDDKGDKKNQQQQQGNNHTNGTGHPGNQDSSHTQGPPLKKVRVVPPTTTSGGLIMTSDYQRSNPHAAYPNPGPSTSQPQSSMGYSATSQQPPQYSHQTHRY
T1 sequence (P24863 whole entry partner): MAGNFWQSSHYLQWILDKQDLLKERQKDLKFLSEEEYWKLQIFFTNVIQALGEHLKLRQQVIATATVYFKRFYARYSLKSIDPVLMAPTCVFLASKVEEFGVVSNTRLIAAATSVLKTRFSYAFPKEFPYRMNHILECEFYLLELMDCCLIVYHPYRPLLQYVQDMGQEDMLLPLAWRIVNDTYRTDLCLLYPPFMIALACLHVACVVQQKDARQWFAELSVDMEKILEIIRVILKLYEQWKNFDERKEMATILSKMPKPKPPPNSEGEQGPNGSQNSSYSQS
T1 sequence (Q93074 whole entry partner): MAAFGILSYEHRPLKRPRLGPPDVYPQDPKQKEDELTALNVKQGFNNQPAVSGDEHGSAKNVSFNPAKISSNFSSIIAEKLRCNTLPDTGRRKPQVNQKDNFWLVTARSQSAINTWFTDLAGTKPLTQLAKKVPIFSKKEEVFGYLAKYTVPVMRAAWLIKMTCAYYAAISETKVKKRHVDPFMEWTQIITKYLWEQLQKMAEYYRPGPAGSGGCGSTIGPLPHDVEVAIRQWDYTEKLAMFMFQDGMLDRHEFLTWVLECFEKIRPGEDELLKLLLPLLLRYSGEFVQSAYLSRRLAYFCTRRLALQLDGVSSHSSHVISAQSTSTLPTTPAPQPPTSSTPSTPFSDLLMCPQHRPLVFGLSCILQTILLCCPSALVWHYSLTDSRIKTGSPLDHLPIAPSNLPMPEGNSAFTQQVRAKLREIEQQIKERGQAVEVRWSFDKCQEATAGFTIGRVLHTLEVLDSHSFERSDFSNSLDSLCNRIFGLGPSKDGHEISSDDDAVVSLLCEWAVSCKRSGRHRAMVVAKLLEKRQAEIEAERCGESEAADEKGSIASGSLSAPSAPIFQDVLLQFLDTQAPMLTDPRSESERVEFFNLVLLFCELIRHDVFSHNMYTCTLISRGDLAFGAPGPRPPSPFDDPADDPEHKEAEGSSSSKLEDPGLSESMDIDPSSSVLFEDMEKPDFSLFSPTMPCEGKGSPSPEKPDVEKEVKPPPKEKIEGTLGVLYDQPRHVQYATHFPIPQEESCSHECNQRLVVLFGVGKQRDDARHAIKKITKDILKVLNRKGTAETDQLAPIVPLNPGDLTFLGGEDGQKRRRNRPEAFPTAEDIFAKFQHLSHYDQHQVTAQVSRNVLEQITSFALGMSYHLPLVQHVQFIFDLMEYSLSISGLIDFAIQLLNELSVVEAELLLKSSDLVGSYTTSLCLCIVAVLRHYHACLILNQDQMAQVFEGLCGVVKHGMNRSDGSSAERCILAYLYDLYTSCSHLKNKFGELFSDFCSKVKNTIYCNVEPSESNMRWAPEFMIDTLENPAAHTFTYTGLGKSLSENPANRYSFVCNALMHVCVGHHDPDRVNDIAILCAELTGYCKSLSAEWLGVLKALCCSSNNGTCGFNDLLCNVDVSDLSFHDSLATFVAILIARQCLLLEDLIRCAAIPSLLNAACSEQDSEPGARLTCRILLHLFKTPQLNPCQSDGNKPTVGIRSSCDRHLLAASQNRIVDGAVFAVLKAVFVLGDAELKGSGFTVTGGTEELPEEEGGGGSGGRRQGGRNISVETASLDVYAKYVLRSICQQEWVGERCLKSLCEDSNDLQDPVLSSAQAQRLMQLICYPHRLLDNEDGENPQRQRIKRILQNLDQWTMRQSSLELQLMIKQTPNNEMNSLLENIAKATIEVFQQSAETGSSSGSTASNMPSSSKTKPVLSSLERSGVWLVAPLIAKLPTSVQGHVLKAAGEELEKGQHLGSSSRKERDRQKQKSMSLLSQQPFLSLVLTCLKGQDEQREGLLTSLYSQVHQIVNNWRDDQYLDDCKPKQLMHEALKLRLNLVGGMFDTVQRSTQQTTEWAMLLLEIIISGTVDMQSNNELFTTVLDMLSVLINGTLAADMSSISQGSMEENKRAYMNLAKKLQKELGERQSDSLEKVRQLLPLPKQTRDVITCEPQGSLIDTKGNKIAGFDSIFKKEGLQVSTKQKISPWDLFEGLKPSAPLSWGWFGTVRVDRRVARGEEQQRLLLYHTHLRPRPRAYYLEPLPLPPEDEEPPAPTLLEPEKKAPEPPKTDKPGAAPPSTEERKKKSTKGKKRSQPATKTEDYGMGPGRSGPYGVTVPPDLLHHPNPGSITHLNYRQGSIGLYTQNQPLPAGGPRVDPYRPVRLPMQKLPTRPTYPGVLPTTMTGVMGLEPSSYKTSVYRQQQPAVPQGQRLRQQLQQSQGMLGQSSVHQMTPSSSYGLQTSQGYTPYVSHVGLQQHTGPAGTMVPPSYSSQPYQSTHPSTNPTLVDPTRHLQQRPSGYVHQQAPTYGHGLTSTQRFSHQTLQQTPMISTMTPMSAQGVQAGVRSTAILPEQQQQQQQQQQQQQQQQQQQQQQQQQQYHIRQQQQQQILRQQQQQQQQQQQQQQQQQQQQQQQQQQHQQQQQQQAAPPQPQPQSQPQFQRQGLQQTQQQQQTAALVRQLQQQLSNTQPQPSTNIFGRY
T1 sequence (Q9UHV7 whole entry partner): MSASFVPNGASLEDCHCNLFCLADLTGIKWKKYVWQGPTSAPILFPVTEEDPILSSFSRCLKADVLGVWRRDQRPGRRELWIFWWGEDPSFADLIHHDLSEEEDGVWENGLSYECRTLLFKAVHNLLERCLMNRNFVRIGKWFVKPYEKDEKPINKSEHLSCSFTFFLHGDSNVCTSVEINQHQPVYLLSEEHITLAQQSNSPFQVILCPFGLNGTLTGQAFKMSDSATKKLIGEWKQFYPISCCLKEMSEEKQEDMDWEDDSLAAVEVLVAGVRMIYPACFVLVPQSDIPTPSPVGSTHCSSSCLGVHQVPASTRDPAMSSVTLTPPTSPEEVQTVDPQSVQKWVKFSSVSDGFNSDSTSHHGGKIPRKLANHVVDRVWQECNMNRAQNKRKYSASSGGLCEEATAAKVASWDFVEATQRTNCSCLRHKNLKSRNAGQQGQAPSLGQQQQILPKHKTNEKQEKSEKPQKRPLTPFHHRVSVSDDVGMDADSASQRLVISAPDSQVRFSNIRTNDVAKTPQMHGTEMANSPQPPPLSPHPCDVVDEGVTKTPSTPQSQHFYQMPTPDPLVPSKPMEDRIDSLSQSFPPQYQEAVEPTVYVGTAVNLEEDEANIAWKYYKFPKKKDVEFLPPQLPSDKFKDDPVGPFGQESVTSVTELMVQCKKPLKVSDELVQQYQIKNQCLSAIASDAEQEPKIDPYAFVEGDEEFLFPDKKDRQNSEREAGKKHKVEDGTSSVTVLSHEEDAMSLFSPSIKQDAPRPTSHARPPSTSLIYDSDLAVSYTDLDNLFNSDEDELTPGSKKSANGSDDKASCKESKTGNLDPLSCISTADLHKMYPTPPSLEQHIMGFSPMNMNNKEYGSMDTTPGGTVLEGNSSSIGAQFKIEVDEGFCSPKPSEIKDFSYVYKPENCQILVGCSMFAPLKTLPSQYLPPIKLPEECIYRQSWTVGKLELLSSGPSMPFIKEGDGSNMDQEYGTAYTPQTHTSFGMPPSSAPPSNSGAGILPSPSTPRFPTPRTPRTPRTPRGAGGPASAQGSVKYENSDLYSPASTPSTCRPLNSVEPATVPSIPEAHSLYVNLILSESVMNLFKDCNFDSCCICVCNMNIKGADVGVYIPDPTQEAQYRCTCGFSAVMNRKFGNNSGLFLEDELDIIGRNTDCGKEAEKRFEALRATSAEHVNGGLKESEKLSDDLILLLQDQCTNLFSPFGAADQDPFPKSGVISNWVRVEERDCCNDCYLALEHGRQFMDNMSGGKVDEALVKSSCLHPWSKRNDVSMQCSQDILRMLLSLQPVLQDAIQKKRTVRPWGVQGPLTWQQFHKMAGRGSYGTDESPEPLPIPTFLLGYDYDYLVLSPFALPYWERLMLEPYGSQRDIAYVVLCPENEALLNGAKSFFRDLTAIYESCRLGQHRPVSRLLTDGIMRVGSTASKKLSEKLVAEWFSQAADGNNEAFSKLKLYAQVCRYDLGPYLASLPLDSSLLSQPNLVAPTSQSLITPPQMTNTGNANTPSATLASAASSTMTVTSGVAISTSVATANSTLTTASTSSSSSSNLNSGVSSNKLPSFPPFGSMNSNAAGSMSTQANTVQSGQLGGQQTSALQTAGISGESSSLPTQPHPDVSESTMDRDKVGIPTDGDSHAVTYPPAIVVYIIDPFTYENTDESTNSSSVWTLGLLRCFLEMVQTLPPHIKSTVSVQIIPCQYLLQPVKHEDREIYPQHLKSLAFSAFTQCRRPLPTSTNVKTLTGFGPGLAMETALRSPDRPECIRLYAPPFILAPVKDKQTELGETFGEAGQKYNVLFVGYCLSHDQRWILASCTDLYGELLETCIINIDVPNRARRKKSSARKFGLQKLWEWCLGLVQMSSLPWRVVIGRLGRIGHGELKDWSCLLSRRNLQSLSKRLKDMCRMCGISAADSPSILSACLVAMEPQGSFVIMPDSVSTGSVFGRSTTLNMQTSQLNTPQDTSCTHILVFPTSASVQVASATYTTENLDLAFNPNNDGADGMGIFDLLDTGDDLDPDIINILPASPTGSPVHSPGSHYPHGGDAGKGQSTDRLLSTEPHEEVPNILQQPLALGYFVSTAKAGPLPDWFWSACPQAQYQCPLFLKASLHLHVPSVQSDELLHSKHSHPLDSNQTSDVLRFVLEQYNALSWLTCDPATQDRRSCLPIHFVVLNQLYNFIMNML
Put plainly: In vitro kinase assay, CDK8 module. In kind it is biochemical.

Series [4] relates to luciferase-expressing MV4;11 cells. Nature of the series: MV4;11 xenotransplant model of disseminated human AML. It is filed as in vivo. The note with it: IP once daily for 15 days, NSG mice. The procedure: as §1
A further series relates to MEG-01. Nature of the series: Cell growth assay, MEG-01. In kind it is cell-based. The note with it: Homo sapiens, MEG-01, 240 h; CA, after 10 days; read-out: Mean GI50 (nM), MEG-01. The procedure: as §2
The next series has as its system RS4;11. Put plainly: Cell growth assay, RS4;11. The note with it: Homo sapiens, RS4-11, 240 h; CA, after 10 days; read-out: Mean GI50 (nM), RS4;11. In kind it is cell-based. The protocol:
as §2

Where two headings read alike, the source gives them in different places.

Procedure for CDK8 module: Data was quantified with ImageJ and plotted and fitted with GraphPad Prism 6.0. For STAT1 transactivation domain (TAD), 750 ng of GST-STAT1 TAD (residues 639-750) was incubated with ˜50 ng recombinant CDK8 module at 30° C. for 8 min in kinase buffer (25 mM Tris pH 8, 2 mM DTT, 100 μM cold ATP, 100 mM KCl, 10 mM MgCl2 and 2.5 μCi [γ-^32P] ATP (Perkin Elmer) per reaction). […] 12% SDS-PAGE gels were subsequently silver stained, exposed for 18 h on a Phosphor Screen and imaged (Typhoon 9400, GE Life Sciences). For pol II CTD, 400 ng of GST-CTD (murine sequence) was incubated with ˜40 ng recombinant CDK8 module, 25 ng TFIIH, or 40 ng P-TEFb at 30° C. for 60 min in kinase buffer. Kinase amounts were chosen to give similar total pol II CTD signal. 9% SDS-PAGE gels were silver stained and exposed as above. In vitro FLAG-CDK8 kinase assays used ˜40 ng kinase and 500 ng GST-CTD. […] All experiments were performed twice.

As to `CN(C)[C@H]1C[C@@]23CC[C@@]4(O2)C(=CC[C@@]2(C)[C@@H](c5ccc6ccncc6c5)CC[C@H]24)C=C3[C@@H](O)[C@@H]1O` [CA, cortistatin A], in [1], the pharmacokinetic properties entry is “acceptable pharmacokinetic properties”. The “STAT1 S727 phosphorylation in NK cells” value in series [2] is recorded as “dose-dependent reduction”. The GI50 – broadly, the concentration that inhibits growth by half – in the series with SKNO-1 (CA, after 10 days, read-out: Mean GI50 (nM), SKNO-1) is 1 nM; in the series on SKNO-1 (read-out: SKNO-1 GI50 day 10), under 0.4 nM; in the series on SET-2 (SET-2, 240 h, CA, after 10 days, read-out: Mean GI50 (nM), SET-2), 4 nM; with SET-2 (SET-2, Table 5, read-out: GI50 (nM), SET2) it was 4 nM; with MEG-01, 9 nM; in the series on RS4;11, 3 nM. The body weight entry in [3] was “no loss in body weight”. Further, the tumor volume reduction in series [3] stood at 71%. For the same compound, on CDK8 module, the “inhibition of kinase activity of the CDK8 module” value is “potently inhibited”. Further, in [4], the “disease progression (bioluminescence, spleen weight, leukemia cell burden, survival)” value is “dose-dependent reduction in disease progression”. For the same compound, in series [4], the “median extension in survival” value is 29.5 days.
